# Reference: article PMC4595979 (Horticulture Research, 2015)
# Assays:
# LOX2:Md:2a (MdLOX2a) = molecular target: T1, LOX2:Md:2a (MdLOX2a) (Malus domestica, UniProt S4U6N9); assay: HPLC product analysis; format: biochemical; conditions: 50 mM sodium phosphate pH 7.5, 25 °C, 0.3 mM substrate
# T1 sequence (S4U6N9 1-906): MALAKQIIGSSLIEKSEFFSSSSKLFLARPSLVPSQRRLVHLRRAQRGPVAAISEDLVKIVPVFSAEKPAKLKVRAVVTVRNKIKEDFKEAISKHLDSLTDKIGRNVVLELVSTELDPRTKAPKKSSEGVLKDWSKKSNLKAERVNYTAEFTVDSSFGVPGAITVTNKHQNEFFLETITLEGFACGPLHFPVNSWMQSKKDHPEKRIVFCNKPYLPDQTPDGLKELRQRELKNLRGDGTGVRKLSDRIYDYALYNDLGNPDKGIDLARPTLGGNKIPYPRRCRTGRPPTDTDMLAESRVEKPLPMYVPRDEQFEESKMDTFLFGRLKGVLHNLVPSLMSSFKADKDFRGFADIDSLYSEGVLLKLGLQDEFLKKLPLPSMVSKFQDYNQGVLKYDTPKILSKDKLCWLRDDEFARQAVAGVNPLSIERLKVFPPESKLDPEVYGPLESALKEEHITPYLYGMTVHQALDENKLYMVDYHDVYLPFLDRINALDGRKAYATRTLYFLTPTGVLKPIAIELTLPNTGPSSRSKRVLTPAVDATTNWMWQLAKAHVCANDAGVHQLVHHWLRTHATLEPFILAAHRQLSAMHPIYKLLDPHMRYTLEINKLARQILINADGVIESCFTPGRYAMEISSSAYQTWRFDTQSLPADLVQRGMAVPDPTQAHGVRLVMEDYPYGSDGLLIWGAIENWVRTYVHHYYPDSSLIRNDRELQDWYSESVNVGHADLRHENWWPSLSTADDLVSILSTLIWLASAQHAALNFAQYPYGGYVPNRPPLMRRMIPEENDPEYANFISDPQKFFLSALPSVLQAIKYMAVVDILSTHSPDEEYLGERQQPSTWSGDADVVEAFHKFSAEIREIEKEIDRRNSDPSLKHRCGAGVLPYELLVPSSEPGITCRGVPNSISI
# LOX2:Md:2b (MdLOX2b) = molecular target: T2, LOX2:Md:2b (MdLOX2b) (Malus domestica, UniProt S4ULD7); assay: HPLC product analysis; format: biochemical; conditions: 50 mM sodium phosphate pH 7.5, 25 °C, 0.3 mM substrate
# T2 sequence (S4ULD7 1-905): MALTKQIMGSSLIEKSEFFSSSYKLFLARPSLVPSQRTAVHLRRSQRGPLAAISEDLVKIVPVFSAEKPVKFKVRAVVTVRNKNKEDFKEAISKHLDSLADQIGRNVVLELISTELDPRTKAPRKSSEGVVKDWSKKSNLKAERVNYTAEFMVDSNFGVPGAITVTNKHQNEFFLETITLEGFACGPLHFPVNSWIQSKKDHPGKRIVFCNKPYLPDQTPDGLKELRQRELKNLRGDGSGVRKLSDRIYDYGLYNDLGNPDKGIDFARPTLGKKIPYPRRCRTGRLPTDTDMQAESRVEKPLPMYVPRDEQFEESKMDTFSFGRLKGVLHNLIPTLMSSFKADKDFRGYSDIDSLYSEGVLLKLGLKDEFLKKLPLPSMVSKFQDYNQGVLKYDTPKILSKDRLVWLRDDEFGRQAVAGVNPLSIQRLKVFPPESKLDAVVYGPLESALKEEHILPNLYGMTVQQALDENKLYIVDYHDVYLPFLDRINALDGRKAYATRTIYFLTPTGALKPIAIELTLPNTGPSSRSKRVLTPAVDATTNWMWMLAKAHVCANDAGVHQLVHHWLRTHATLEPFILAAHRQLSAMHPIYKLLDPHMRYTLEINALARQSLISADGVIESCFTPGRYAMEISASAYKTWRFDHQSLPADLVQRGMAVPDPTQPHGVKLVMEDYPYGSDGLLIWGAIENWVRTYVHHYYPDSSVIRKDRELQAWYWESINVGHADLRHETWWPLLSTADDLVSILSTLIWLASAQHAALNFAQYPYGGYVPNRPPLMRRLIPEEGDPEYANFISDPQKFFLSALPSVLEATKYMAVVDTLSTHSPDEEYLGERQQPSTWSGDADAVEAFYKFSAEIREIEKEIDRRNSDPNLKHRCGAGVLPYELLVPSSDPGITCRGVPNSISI
Compound,"HPLC product analysis (SP-HPLC, CP-HPLC) (LOX2:Md:2a (MdLOX2a))","HPLC product analysis (SP-HPLC, CP-HPLC) (LOX2:Md:2b (MdLOX2b))"
CCCCC/C=C\C/C=C\CCCCCCCC(=O)O [linoleic acid],LOX2:Md:2a and LOX2:Md:2b converted LA and LnA predominantly to 13-hydroperoxides,LOX2:Md:2a and LOX2:Md:2b converted LA and LnA predominantly to 13-hydroperoxides
CC/C=C\C/C=C\C/C=C\CCCCCCCC(=O)O [α-linolenic acid],LOX2:Md:2a and LOX2:Md:2b converted LA and LnA predominantly to 13-hydroperoxides,LOX2:Md:2a and LOX2:Md:2b converted LA and LnA predominantly to 13-hydroperoxides
